Measurements published in patent publication US11976068B2 (CHIMERIX, INC., priority 2015, dated 2024).

Tests used:
[1] = tested on: human foreskin fibroblasts (HFF), human fetal lung fibroblast (MRC-5) cells, human lung fibroblast cell line (WI-38); conditions: 72 hours
[2] = tested on: human colon cancer cell line (HCT116), breast tumor cell line (MDA-MB-231), human primary glioblastoma cell line (U87); experiment: Cell viability, tumor cells (FIG. 1)
human BCRP = biological target: T1, human BCRP (Homo sapiens, UniProt Q9UNQ0); experiment: BCRP inhibition, bidirectional permeability of prazosin in MDCKII-BCRP monolayers; conditions: at 200 micromolar
T1 sequence (Q9UNQ0 1-655): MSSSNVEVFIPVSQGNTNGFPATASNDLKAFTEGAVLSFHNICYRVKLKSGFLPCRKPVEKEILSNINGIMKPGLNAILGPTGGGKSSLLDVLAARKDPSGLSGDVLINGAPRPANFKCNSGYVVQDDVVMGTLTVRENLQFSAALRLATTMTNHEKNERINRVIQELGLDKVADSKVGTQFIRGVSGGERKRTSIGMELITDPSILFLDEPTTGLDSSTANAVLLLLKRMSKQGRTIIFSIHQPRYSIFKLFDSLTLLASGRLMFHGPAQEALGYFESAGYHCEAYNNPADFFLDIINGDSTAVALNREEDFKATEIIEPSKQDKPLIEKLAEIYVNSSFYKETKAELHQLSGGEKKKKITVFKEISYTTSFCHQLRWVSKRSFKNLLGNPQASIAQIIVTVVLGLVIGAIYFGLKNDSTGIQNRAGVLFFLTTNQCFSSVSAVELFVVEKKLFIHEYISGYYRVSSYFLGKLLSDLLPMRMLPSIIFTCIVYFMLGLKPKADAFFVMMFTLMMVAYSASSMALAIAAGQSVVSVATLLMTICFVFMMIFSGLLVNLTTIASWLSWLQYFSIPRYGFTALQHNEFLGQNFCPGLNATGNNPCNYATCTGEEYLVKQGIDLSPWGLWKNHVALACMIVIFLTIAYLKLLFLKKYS

## Cc1ccccc1CN1C(=O)C2=C(CCN(Cc3ccccc3)C2)N2CCN=C12 [ONC201, 7-benzyl-4-(2-methylbenzyl)-2,4,6,7,8,9-hexahydroimidazo [1,2-a]pyrido[3,4-e]pyrimidin-5(1H)-one]
[1]; about 1-5 mg/mL compound (1)
  cell viability of normal cells: at least 75%
[1]; beyond about 5 mg/mL compound (1)
  viability of normal cells: about 75%
[2]; Homo sapiens, 72 h, read-out: viability of tumor cells
  viability at 5000 µg/mL: < 25%
[2]; about 1-5 mg/mL compound (1), 72 hours
  viability of tumor cells: ≤ 50%
Human BCRP
  inhibitor of BCRP: inhibitor
